From patent US5256528A, “Magenta image-dye couplers of improved hue” (Eastman Kodak Company, priority 1992, dated 1993)

Assays:
[1] = Absorption spectra of dye-containing processed films (λmax), C-41 process; assay type: physicochemical
Method: (§1) Dispersions of the comparative couplers B1-B3 and B8 and of the couplers of this invention M1-M3 were prepared by dissolving the coupler in the coupler solvent S1 plus the auxiliary solvent 2-(2-butoxyethoxy)ethyl acetate and then dispersing this oil phase in an aqueous solution of gelatin and surfactant using an ultrasonic probe. The dispersions were chilled and washed for 6 hr at 4° C. to remove the auxiliary solvent. The dispersions contained approximately 8.8% coupler, 4.4% S1 and 6% gelatin by weight.
(§2) The dispersions were coated at 1.04 mmole/sq m together with a silver bromoiodide emulsion on a transparent acetate support in the format shown below. Hardened film strips were exposed through a 0-4 neutral density stepwedge and daylight V and WRATTEN 9 filters and subjected to a standard C-41 process at 37.8° C. The process consists of 2.5 min in color developer, 4 min in a ferric EDTA/PDTA bleach solution, 2 min wash, 4 min fix and 2 min final wash. Photographic gamma values were obtained from the slopes of plots of status M green density vs. exposure for processed samples. Absorption spectra of the dye-containing processed films were measured at a density near 1.0 on a spectrophotometer and the wavelengths of maximum absorption (λ max values) were recorded.
(§3) BVSM* Hardener 0.06 g/sq m
(§4) Coupler Solvent S1 1/2 coupler laydown
(§5) Dispersions of couplers B3, M1 and M5 with S1 (1:0.5) were prepared and coated as in Example 2. Film strips of these coatings were exposed, processed and analyzed as in Example 2. λmax values and gamma values associated with these film compositions are listed in Table III. This series further illustrates the use of electron-withdrawing substituents to obtain magenta dyes of the proper hue.
(§6) Dispersions of the comparative couplers B4, B5 and B8 and the couplers of this invention M6-M11 were prepared and coated as in Example 2. The coupler solvent S1 was again used at a 1:0.5 coupler:S1 weight ratio. Film strips of the hardened coatings were exposed, processed and analyzed as in Example 2. Couplers B4 and M6-M8 have a strongly electron-withdrawing alkoxycarbonyl substituent in the R2 position and couplers B5 and M9-M11 have a strongly electron-withdrawing alkylsulfonyl group at R2. […] The couplers of this invention, M6-M11, which have strong electron-withdrawing groups in each ring, yield dyes having the desired bathochromic hues, as shown by the λmax values. The gamma values obtained with the couplers of this invention are suitably high to be useful in photographic materials, as indicated by comparison to the gamma obtained from the commercial coupler B8.
(§7) Dispersions of the comparison couplers B6 and B7, and of the couplers of this invention M12-M17, were prepared using the coupler solvent Sl as in Example 2. These were coated as in Example 2, and hardened film strips were exposed, processed and analyzed as in Example 2. The results obtained are summarized in Table V. In this example all of the couplers have sulfamoyl or alkylsulfonyl substituents in the R1 position and the R2 substituent on the 3-anilino ring is varied. Comparative couplers B6 and B7 have chloro substituents at R2, whereas M12-M17 of this invention have strong electron withdrawing R2 groups. […] The gamma values of the couplers of this invention are similar to those of the comparative couplers.

[2] = Photographic gamma (slope of status M green density vs. exposure), C-41 process
Method: as §1, §2, §3, §4, §5, §6, §7

[3] = Table V, Example 6, coupler solvent S1
[4] = Table I, Example 2, coupler:S1 1:0.5
[5] = Table IV, Example 5, coupler:S1 1:0.5

For `CCCCCCCCCCCCNS(=O)(=O)c1cc(Cl)c(N2N=C(Nc3ccc(S(=O)(=O)N4CCOCC4)cc3Cl)C(Sc3cc(C(C)(C)CC(C)(C)C)ccc3OCCCC)C2=O)c(Cl)c1` (stereo not drawn) [Coupler M12], the “λmax(nm) (+-0.5)” value [1, 3] was 549.5 nm and the Gamma [2, 3] was 3.1.

With `CCCCCCCCCCCCNS(=O)(=O)c1ccc(NC2=NN(c3c(Cl)cc(S(=O)(=O)N4CCOCC4)cc3Cl)C(=O)C2Sc2ccccc2N(CCCCCCCCCCCC)C(=O)C(C)(C)C)c(Cl)c1` (stereo not drawn) [Coupler M3] the “λmax(nm) (+-0.5)” value [1, 4] was 551.0 nm and the Gamma [2, 4] was 4.4.

`CCCCCCCCCCCCNS(=O)(=O)c1cc(Cl)c(N2N=C(Nc3ccc(Cl)cc3Cl)C(Sc3cc(C(C)(C)CC(C)(C)C)ccc3OCCCC)C2=O)c(Cl)c1` (stereo not drawn) [Coupler B6, reference compound] showed a Gamma [2, 3] of 3.4.

Work on `CCCCCCCCCCCCOC(=O)c1ccc(NC2=NN(c3c(Cl)cc(Cl)cc3Cl)C(=O)C2Sc2cc(C(C)(C)CC(C)(C)C)ccc2OCCCC)c(Cl)c1` (stereo not drawn) [Coupler B4, reference compound] yielded a Gamma [2, 5] of 4.1.

For `CCCCCCCCCCCCOC(=O)c1ccc(NC2=NN(c3c(Cl)cc(S(C)(=O)=O)cc3Cl)C(=O)C2Sc2cc(C(C)(C)CC(C)(C)C)ccc2OCCCC)c(Cl)c1` (stereo not drawn) [Coupler M7], the “λmax(nm) (+-0.5)” value [1, 5] was 548.5 nm and the Gamma [2, 5] was 3.1.

For `CCCCCCCCCCCCNS(=O)(=O)c1cc(Cl)c(N2N=C(Nc3ccc(C#N)cc3Cl)C(Sc3cc(C(C)(C)CC(C)(C)C)ccc3OCCCC)C2=O)c(Cl)c1` (stereo not drawn) [Coupler M14], the “λmax(nm) (+-0.5)” value [1, 3] was 550.5 nm and the Gamma [2, 3] was 3.1.

In the case of `CCCCCCCCCCCCNS(=O)(=O)c1ccc(NC2=NN(c3c(Cl)cc(S(=O)(=O)N4CCOCC4)cc3Cl)C(=O)C2Sc2ccccc2N(C)C(=O)CCCCCCCCCCC)c(Cl)c1` (stereo not drawn) [Coupler M2], the “λmax(nm) (+-0.5)” value [1, 4] is reported as 551.5 nm and the Gamma [2, 4] is reported as 3.9.

In the case of `CCCCCCCCCCCCS(=O)(=O)c1cc(Cl)c(N2N=C(Nc3ccc(S(C)(=O)=O)cc3Cl)C(Sc3cc(C(C)(C)CC(C)(C)C)ccc3OCCCC)C2=O)c(Cl)c1` (stereo not drawn) [Coupler M16], the “λmax(nm) (+-0.5)” value [1, 3] is reported as 550.5 nm and the Gamma [2, 3] is reported as 3.2.

With `CCCCCCCCCCCCS(=O)(=O)c1cc(Cl)c(N2N=C(Nc3ccc(S(=O)(=O)N4CCOCC4)cc3Cl)C(Sc3cc(C(C)(C)CC(C)(C)C)ccc3OCCCC)C2=O)c(Cl)c1` (stereo not drawn) [Coupler M15] the “λmax(nm) (+-0.5)” value [1, 3] was 551.0 nm and the Gamma [2, 3] was 3.4.

In the case of `CCCCCCCCCCCCOC(=O)c1ccc(NC2=NN(c3c(Cl)cc(S(=O)(=O)N4CCOCC4)cc3Cl)C(=O)C2Sc2cc(C(C)(C)CC(C)(C)C)ccc2OCCCC)c(Cl)c1` (stereo not drawn) [Coupler M6], the “λmax(nm) (+-0.5)” value [1, 5] is reported as 548.5 nm and the Gamma [2, 5] is reported as 3.7.

In the case of `CCCCCCCCCCCCS(=O)(=O)c1ccc(NC2=NN(c3c(Cl)cc(S(=O)(=O)N4CCOCC4)cc3Cl)C(=O)C2Sc2cc(C(C)(C)CC(C)(C)C)ccc2OCCCC)c(Cl)c1` (stereo not drawn) [Coupler M9], the “λmax(nm) (+-0.5)” value [1, 5] is reported as 551.0 nm and the Gamma [2, 5] is reported as 3.2.

In the case of `CCCCCCCCCCCCS(=O)(=O)c1ccc(NC2=NN(c3c(Cl)cc(Cl)cc3Cl)C(=O)C2Sc2cc(C(C)(C)CC(C)(C)C)ccc2OCCCC)c(Cl)c1` (stereo not drawn) [Coupler B5, reference compound], the Gamma [2, 5] is reported as 4.2.

For `CCCCCCCCCCCCNS(=O)(=O)c1ccc(NC2=NN(c3c(Cl)cccc3Cl)C(=O)C2Sc2cc(C(C)(C)CC(C)(C)C)ccc2OCCCC)c(Cl)c1` (stereo not drawn) [Coupler B2, reference compound], the “λmax(nm) (+-0.5)” value [1, 4] was 542.0 nm and the Gamma [2, 4] was 5.3.

In the case of `CCCCCCCCCCCCS(=O)(=O)c1cc(Cl)c(N2N=C(Nc3ccc(C#N)cc3Cl)C(Sc3cc(C(C)(C)CC(C)(C)C)ccc3OCCCC)C2=O)c(Cl)c1` (stereo not drawn) [Coupler M17], the “λmax(nm) (+-0.5)” value [1, 3] is reported as 550.5 nm and the Gamma [2, 3] is reported as 3.5.

With `CCC(C)(C)c1ccc(OCC(=O)Nc2cccc(C(=O)NC3=NN(c4c(Cl)cc(Cl)cc4Cl)C(=O)C3)c2)c(C(C)(C)CC)c1` [Coupler B8, reference compound] the “λmax(nm) (+-0.5)” value [1, 4] was 555.0 nm, the “λmax(nm) (+-0.5)” value [1, 5] was 553.0 nm and the Gamma [2, 4] was 2.3. The Gamma [2, 5] was 2.0.

With `CCCCCCCCCCCCS(=O)(=O)c1ccc(NC2=NN(c3c(Cl)cc(S(C)(=O)=O)cc3Cl)C(=O)C2Sc2cc(C(C)(C)CC(C)(C)C)ccc2OCCCC)c(Cl)c1` (stereo not drawn) [Coupler M10] the “λmax(nm) (+-0.5)” value [1, 5] was 551.0 nm and the Gamma [2, 5] was 3.2.

With `CCCCCCCCCCCCOC(=O)c1ccc(NC2=NN(c3c(Cl)cc(C#N)cc3Cl)C(=O)C2Sc2cc(C(C)(C)CC(C)(C)C)ccc2OCCCC)c(Cl)c1` (stereo not drawn) [Coupler M8] the “λmax(nm) (+-0.5)” value [1, 5] was 548.5 nm and the Gamma [2, 5] was 4.1.

For `CCCCCCCCCCCCNS(=O)(=O)c1ccc(NC2=NN(c3c(Cl)cc(OC)cc3Cl)C(=O)C2Sc2cc(C(C)(C)CC(C)(C)C)ccc2OCCCC)c(Cl)c1` (stereo not drawn) [Coupler B1, reference compound], the “λmax(nm) (+-0.5)” value [1, 4] was 539.5 nm and the Gamma [2, 4] was 4.8.

`CCCCCCCCCCCCS(=O)(=O)c1cc(Cl)c(N2N=C(Nc3ccc(Cl)cc3Cl)C(Sc3cc(C(C)(C)CC(C)(C)C)ccc3OCCCC)C2=O)c(Cl)c1` (stereo not drawn) [Coupler B7, reference compound] showed a Gamma [2, 3] of 3.3.

In the case of `CCCCCCCCCCCCNS(=O)(=O)c1cc(Cl)c(N2N=C(Nc3ccc(S(C)(=O)=O)cc3Cl)C(Sc3cc(C(C)(C)CC(C)(C)C)ccc3OCCCC)C2=O)c(Cl)c1` (stereo not drawn) [Coupler M13], the “λmax(nm) (+-0.5)” value [1, 3] is reported as 549.5 nm and the Gamma [2, 3] is reported as 3.9.

Compound `CCCCCCCCCCCCNS(=O)(=O)c1ccc(NC2=NN(c3c(Cl)cc(C#N)cc3Cl)C(=O)C2Sc2cc(C(C)(C)CC(C)(C)C)ccc2OCCCC)c(Cl)c1` (stereo not drawn) [Coupler M5] has a Gamma ([2]; Table III, Example 4, coupler:S1 1:0.5) of 3.8.
